Holding throughout (assay type): in vivo
Experiment [1] is described as follows: blind tasting of chocolate chip cookies baked with sugar substitutes, with and without sodium gluconate. As to conditions: ½ tsp of sodium gluconate for every cup of erythritol; 5 people, blind sampled. From the text: The level of sodium gluconate on bitterness reduction in baked goods was investigated. Using a commercially available recipe of chocolate chip cookies, a batch of cookies were baked and blind sampled. The batches were baked using the recipe (i) 2 sticks unsalted butter, at room temperature; (ii) 1 cup erythritol or 1 cup monk fruit sugar substitute or ½ cup stevia sugar substitute; (iii) for samples with sodium gluconate, ½ tsp of sodium gluconate was used for every cup of erythritol; (iv) 1¼ egg; (v) 1⅓ cup almond flour; (vi) 2 tsp vanilla extract; (vii) 1¼ tsp sea salt; (viii) ½ tsp baking powder; (ix) ¼ tsp baking soda; and (x) 1 bag Lily's Sweets Semi-Sweet Chocolate Chips or Milk Chocolate Baking Chips. […] Five (5) people were brought in to compare batches with and without sodium gluconate.

Experiment [2] can be described thus: trained-panel taste test of caffeine solutions with and without sodium gluconate (dose response). How it is done: The effect of sodium gluconate on bitterness as a dose response was investigated, In a blind study, six (6) trained panelists conducted a taste test with caffeine samples. […] Caffeine solutions with and without sodium gluconate were prepared on a w/v basis with deionized water. Products were dispensed into lidded soufflé cups with 3-digit codes and evaluated at 21° C. Products were evaluated in duplicate by 6 trained panelists for bitter taste amelioration following the study by Leksrisompong et al. (2012).

Experiment [3] is described as follows: blind taste panel: which coffee tasted less bitter. As to conditions: Coffee 2 = 0.5 grams of sodium gluconate added to a 200 g coffee; blind study, panel of 8 individuals; FIG. 1. Here is the method:
The ability of a BMA to reduce the bitterness of a coffee product was investigated. Specifically, varying amounts of a BMA according to aspects described herein was added to coffee samples. In a blind study, a panel of 8 individuals were asked to determine which coffee tasted less bitter. […] Coffee 2 had 0.5 grams of sodium gluconate added to a 200 g coffee.
In a blind study, a panel of 8 individuals were asked to determine which coffee tasted less bitter. […] Coffee 2 had 0.5 grams of sodium gluconate added to a 200 g coffee.

Consider `O=C([O-])[C@H](O)[C@@H](O)[C@H](O)[C@H](O)CO.[Na+]` [sodium gluconate], for which the “participants' preference between cookie batches with and without sodium gluconate” value in experiment [1] was “All 5 participants preferred”. Further, the “bitterness reduction of caffeine samples” value in experiment [2] (caffeine solutions w/v in deionized water, 21° C., 6 trained panelists in duplicate, 0 to 15 point Spectrum intensity scale, FIG. 2) is “significant bitterness reduction”. Moreover, in experiment [2] (percent bitterness vs masking agent dose, FIG. 3), the “nature of bitterness reduction as a function of masking agent dose” value was “linear”. The “coffee sample chosen by the panel as less bitter” value in experiment [3] is “less bitter, smoother taste”.
